Measurements published in patent publication US20120245137A1 (Zalicus Pharmaceuticals Ltd., priority 2009, published 2012).
Like-named read-outs stand apart in the source and are kept apart here.

What was measured:
Type in all cases: cell-based
CAv1.2 = CAv1.2 (Homo sapiens, UniProt Q13936); experiment: FLIPR data, CAv1.2 channel blocking (Table 6); conditions: for CAv1.2 IC50 Ratio closed/inact.: ratio closed/inactivated IC50
T-type calcium channel [1] = target: T-type calcium channel (Homo sapiens, UniProt O43497); experiment: T-type channel blocking, FLIPR data (Table 6); conditions: CAv3.1
Source text: (§1) Another method, high-throughput spectrophotometric assay, utilizes loading of the cell lines with a fluorescent dye sensitive to intracellular calcium concentration and subsequent examination of the effects of compounds on the ability of depolarization by potassium chloride or other means to alter intracellular calcium levels.

T-type calcium channel [2] = target: T-type calcium channel (Homo sapiens, UniProt O95180); experiment: T-type channel blocking, FLIPR data (Table 6); conditions: for CAv3.2 IC50 Ratio closed/inact.: CAv3.2, ratio closed/inactivated IC50
Source text: as §1

Human Cav 2.2 channels = Human Cav 2.2 channels (Homo sapiens, UniProt Q00975); experiment: Fluorescent assay for CaV2.2 channels using potassium depolarization (VIPR/FLIPR); conditions: FLIPR data; for CAv2.2 IC50 Ratio closed/inact.: ratio closed/inactivated IC50
Method in brief: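 HEK293 cells stably expressing human Cav2.2 with α2δ and β subunits plus Kir2.3 were loaded with fluo-4 and incubated 30 min at 25 °C with compound in 4, 12, 25 or 30 mM potassium buffer. Channels were opened with 70 mM potassium (final) and calcium influx was read by fluorescence (Ex 480/Em 535 nm).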

[3] = closed state, read-out: CAv1.2 IC50 Closed
[4] = inactivated state, read-out: CAv1.2 IC50 Inact.
[5] = CAv3.2, closed state, read-out: CAv3.2 IC50 Closed
[6] = CAv3.2, inactivated state, read-out: CAv3.2 IC50 Inact.
[7] = closed state, read-out: CAv2.2 IC50 Closed
[8] = inactivated state, read-out: CAv2.2 IC50 Inact.

Chain of Human Cav 2.2 channels (Q00975 whole entry): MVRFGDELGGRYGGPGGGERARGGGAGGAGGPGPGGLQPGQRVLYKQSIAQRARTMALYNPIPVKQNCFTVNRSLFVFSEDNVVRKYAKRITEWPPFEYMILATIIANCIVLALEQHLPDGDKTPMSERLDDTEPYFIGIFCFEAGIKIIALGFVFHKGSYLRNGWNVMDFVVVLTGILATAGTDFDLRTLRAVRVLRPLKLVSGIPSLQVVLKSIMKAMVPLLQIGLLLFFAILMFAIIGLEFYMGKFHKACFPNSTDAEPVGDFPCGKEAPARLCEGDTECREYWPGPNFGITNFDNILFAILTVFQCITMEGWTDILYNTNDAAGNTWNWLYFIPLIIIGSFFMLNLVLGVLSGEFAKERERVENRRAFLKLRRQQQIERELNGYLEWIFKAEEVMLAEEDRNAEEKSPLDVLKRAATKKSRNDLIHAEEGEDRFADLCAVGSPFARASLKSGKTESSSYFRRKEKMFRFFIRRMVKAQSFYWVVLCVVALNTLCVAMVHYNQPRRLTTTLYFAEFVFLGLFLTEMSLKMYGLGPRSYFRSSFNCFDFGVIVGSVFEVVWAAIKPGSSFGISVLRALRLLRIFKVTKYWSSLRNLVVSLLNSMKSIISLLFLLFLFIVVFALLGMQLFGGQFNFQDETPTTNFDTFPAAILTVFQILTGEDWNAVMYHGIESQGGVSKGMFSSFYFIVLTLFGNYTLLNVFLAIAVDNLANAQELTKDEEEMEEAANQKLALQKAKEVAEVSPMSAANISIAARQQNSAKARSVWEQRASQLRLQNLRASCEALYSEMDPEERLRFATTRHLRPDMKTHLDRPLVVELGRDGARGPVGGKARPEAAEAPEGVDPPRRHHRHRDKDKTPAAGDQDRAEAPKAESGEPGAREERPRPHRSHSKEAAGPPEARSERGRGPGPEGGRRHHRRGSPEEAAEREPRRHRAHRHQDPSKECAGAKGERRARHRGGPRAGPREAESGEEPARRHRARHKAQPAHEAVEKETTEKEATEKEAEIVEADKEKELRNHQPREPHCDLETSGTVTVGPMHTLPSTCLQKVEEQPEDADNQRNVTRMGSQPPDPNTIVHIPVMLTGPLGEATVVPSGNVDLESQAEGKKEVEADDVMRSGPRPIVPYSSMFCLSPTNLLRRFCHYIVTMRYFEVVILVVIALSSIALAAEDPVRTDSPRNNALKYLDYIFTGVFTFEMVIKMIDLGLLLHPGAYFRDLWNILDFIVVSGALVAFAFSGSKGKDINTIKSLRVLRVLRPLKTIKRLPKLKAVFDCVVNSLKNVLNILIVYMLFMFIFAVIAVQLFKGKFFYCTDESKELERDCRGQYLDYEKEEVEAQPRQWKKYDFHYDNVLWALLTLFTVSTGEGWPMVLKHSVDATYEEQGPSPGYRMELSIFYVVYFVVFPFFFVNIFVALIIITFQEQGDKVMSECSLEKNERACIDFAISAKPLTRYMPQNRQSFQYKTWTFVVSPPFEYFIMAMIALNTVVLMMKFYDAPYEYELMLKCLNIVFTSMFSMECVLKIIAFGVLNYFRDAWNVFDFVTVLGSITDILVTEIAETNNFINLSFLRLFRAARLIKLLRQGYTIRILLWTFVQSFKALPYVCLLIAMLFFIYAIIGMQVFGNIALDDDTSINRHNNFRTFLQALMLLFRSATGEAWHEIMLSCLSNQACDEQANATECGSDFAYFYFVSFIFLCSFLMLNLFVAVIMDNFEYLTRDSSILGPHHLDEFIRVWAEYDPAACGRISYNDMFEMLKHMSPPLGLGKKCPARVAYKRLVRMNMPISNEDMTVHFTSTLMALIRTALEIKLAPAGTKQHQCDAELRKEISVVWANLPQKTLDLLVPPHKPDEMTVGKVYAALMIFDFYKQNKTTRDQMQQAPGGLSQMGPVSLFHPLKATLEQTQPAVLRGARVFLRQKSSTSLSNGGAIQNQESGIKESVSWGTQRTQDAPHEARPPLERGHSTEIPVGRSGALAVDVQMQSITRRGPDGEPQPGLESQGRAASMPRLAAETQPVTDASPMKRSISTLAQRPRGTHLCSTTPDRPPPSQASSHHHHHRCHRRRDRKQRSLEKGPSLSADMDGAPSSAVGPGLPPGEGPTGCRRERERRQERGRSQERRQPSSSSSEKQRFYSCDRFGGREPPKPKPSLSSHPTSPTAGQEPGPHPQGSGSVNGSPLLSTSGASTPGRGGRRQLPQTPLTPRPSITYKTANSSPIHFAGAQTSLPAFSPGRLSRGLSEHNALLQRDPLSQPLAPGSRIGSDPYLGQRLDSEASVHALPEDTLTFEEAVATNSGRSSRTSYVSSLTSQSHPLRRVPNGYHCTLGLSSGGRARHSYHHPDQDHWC
Chain of Human Cav 2.2 channels (P54289 25-1103 partner): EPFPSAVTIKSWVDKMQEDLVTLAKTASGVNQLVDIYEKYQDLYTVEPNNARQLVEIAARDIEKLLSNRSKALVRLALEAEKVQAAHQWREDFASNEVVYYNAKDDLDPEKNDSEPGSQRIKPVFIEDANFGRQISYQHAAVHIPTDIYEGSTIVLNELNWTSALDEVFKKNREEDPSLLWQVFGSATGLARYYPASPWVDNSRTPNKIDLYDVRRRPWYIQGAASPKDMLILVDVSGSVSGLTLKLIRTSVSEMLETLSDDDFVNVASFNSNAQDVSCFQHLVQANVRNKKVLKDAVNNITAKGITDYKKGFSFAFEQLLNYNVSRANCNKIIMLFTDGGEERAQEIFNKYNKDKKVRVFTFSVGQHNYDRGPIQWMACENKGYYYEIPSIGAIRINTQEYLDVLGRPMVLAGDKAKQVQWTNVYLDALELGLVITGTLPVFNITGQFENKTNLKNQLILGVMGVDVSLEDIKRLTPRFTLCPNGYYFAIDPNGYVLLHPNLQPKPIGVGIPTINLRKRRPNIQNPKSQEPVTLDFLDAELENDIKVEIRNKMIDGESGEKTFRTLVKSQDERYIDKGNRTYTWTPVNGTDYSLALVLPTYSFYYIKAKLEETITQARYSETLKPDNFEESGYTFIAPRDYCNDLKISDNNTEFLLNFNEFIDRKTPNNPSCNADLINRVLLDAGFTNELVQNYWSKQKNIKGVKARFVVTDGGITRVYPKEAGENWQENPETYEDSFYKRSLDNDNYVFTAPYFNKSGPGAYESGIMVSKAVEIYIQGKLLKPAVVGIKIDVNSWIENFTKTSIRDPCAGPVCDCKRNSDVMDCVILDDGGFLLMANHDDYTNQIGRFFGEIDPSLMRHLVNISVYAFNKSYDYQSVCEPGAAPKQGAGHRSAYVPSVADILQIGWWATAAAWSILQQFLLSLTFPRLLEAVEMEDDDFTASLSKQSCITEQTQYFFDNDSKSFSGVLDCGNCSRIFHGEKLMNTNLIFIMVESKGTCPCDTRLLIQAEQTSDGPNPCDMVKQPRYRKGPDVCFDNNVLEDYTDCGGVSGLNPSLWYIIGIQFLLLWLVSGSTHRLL
Chain of Human Cav 2.2 channels (P54284 whole entry partner): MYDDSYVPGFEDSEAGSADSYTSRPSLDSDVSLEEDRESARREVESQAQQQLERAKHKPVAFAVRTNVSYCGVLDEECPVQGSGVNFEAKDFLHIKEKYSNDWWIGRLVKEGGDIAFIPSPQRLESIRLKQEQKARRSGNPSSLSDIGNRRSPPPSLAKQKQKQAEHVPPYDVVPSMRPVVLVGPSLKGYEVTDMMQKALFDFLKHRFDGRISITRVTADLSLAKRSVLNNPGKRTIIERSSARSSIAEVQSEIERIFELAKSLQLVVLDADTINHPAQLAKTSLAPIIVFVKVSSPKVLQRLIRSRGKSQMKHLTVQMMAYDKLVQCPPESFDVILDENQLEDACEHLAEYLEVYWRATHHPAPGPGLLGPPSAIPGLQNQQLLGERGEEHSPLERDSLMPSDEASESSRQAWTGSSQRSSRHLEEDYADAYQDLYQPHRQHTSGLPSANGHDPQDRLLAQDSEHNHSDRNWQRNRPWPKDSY

IC50 (T-type calcium channel [1])	IC50 (T-type calcium channel [2]; [5])	IC50 (T-type calcium channel [2]; [6])	CAv3.2 IC50 Ratio closed/inact. (T-type calcium channel [2])	IC50 (Human Cav 2.2 channels; [7])	IC50 (Human Cav 2.2 channels; [8])	CAv2.2 IC50 Ratio closed/inact. (Human Cav 2.2 channels)	SMILES	IC50 (CAv1.2; [3])	IC50 (CAv1.2; [4])	CAv1.2 IC50 Ratio closed/inact. (CAv1.2)
≥ 10 µM	≥ 10 µM	9.9 µM	1	8.56 µM	0.44 µM	19.5	CC(C)([C@H]1C[C@@H](NC(=O)c2ccc(C(F)(F)F)nc2)C1)S(=O)(=O)c1cccc(C(F)(F)F)c1 [Compound 576]	≥ 10 µM	9.62 µM	1
4.84 µM	3.07 µM	0.66 µM	4.7	2.43 µM	0.13 µM	18.7	CC(C)([C@H]1C[C@@H](NC(=O)c2ccc(C(F)(F)F)cc2)C1)S(=O)(=O)c1cccc(C(F)(F)F)c1 [Compound 581]	3.87 µM	1.48 µM	2.6
3.82 µM	≥ 10 µM	4.97 µM	2	7.07 µM	0.9 µM	7.9	CC(C)([C@H]1C[C@@H](NS(=O)(=O)c2ccc(F)c(C(F)(F)F)c2)C1)S(=O)(=O)c1cc(F)cc(C(F)(F)F)c1 [Compound 601]	8.84 µM	2.86 µM	3.1
8.03 µM	2.69 µM	0.81 µM	3.3	1.34 µM	0.15 µM	8.9	CC(C)(C1CC(CNC(=O)c2ccc(Cl)c(F)c2)C1)S(=O)(=O)c1cccc(C(F)(F)F)c1 (stereo not shown) [Compound 617]	4.05 µM	0.38 µM	10.7
3.8 µM	3.12 µM	1.21 µM	2.6	1.43 µM	0.17 µM	8.4	CC(C)([C@H]1C[C@H](NC(=O)c2ccc(F)c(Cl)c2)C1)S(=O)(=O)c1cc(F)cc(C(F)(F)F)c1 [Compound 597]	3.7 µM	0.86 µM	4.3
≥ 10 µM	≥ 10 µM	9.83 µM	1	3.63 µM	0.21 µM	17.3	CC(C)([C@H]1C[C@H](NC(=O)c2ccnc(C(F)(F)F)n2)C1)S(=O)(=O)c1cc(F)cc(C(F)(F)F)c1 [Compound 595]	≥ 10 µM	≥ 10 µM	–
0.38 µM	0.44 µM	–	–	1.87 µM	0.18 µM	10.4	CC(C)([C@H]1C[C@@H](CNC(=O)c2ccc(F)c(Cl)c2)C1)S(=O)(=O)c1cccc(C(F)(F)F)c1 [Compound 685]	4.71 µM	1.01 µM	4.7
0.77 µM	0.29 µM	0.53 µM	0.5	1.67 µM	0.25 µM	6.7	CC(C)([C@H]1C[C@@H](NC(=O)c2ccc(F)c(Cl)c2)C1)S(=O)(=O)c1cccc(OC(F)(F)F)c1 [Compound 641]	4.11 µM	0.69 µM	6

Second part, the molecule before the results:

SMILES	IC50 (T-type calcium channel [1])	IC50 (T-type calcium channel [2]; [5])	IC50 (T-type calcium channel [2]; [6])	CAv3.2 IC50 Ratio closed/inact. (T-type calcium channel [2])	IC50 (Human Cav 2.2 channels; [7])	IC50 (Human Cav 2.2 channels; [8])	CAv2.2 IC50 Ratio closed/inact. (Human Cav 2.2 channels)	IC50 (CAv1.2; [3])	IC50 (CAv1.2; [4])	CAv1.2 IC50 Ratio closed/inact. (CAv1.2)
CC(C)(C[C@H]1C[C@@H](NC(=O)c2ccc(Cl)cn2)C1)S(=O)(=O)c1cccc(C(F)(F)F)c1 [Compound 733]	6.16 µM	4.61 µM	1.41 µM	3.3	0.5 µM	0.05 µM	10	7.27 µM	3.99 µM	1.8
CC(C)([C@H]1C[C@H](NC(=O)c2ccc(OCC(F)(F)F)nc2)C1)S(=O)(=O)c1cccc(C(F)(F)F)c1 [Compound 674]	9.43 µM	2.74 µM	2.39 µM	1.1	3.01 µM	0.29 µM	10.4	7.73 µM	1.74 µM	4.4
O=C(NC[C@H]1C[C@H](S(=O)(=O)c2cccc(OC(F)(F)F)c2)C1)c1ccc(C(F)(F)F)cc1 [Compound 694]	3.08 µM	2.47 µM	1 µM	2.5	2.11 µM	0.3 µM	7	7.51 µM	2.22 µM	3.4
CC(C)(C1CC(CNC(=O)c2ccc(Cl)c(OC(F)(F)F)c2)C1)S(=O)(=O)c1cccc(C(F)(F)F)c1 (stereo not shown) [Compound 621]	1.47 µM	1.53 µM	0.2 µM	7.7	1.83 µM	0.15 µM	12.2	3.39 µM	0.24 µM	14.1
Cn1nc(C(F)(F)F)cc1C(=O)N[C@H]1C[C@H](CC(C)(C)S(=O)(=O)c2cccc(C(F)(F)F)c2)C1 [Compound 725]	3.6 µM	2.31 µM	0.68 µM	3.4	1.63 µM	0.14 µM	11.6	6.7 µM	2.78 µM	2.4
O=C(NC[C@H]1C[C@H](S(=O)(=O)c2cc(F)cc(C(F)(F)F)c2)C1)c1ccc(OCC(F)(F)F)nc1 [Compound 706]	2.87 µM	4.02 µM	0.74 µM	5.4	3.95 µM	0.85 µM	4.6	7.98 µM	3.09 µM	2.6
CC(C)S(=O)(=O)c1cc(C(F)(F)F)cnc1C(=O)N[C@H]1C[C@@H](C(C)(C)S(=O)(=O)c2cc(F)cc(C(F)(F)F)c2)C1 [Compound 586]	≥ 10 µM	≥ 10 µM	10 µM	1	10 µM	0.48 µM	20.8	≥ 10 µM	9.37 µM	1.1
CC(C)([C@H]1C[C@H](NC(=O)c2ccc(C(F)(F)F)cn2)C1)S(=O)(=O)c1cccc(C(F)(F)F)c1 [Compound 676]	3.87 µM	4.27 µM	3.79 µM	1.1	1.85 µM	0.16 µM	11.6	7.96 µM	3.25 µM	2.4
CC(C)([C@H]1C[C@@H](NS(=O)(=O)c2ccc(C(F)(F)F)cc2Cl)C1)S(=O)(=O)c1cccc(C(F)(F)F)c1 [Compound 627]	2.38 µM	2.2 µM	1.33 µM	1.7	10 µM	0.88 µM	11.4	≥ 10 µM	5.86 µM	1.7
O=C(NC[C@H]1C[C@H](S(=O)(=O)c2cccc(C(F)(F)F)c2)C1)c1ccc(C(F)(F)F)nc1 [Compound 571]	≥ 10 µM	≥ 10 µM	10 µM	1	10 µM	0.42 µM	23.8	≥ 10 µM	≥ 10 µM	–
Cn1nc(C(F)(F)F)cc1C(=O)N[C@H]1C[C@@H](CC(C)(C)S(=O)(=O)c2cccc(C(F)(F)F)c2)C1 [Compound 738]	5.75 µM	2.25 µM	0.52 µM	4.3	1.27 µM	0.12 µM	10.6	5.36 µM	2.34 µM	2.3
CC(C)([C@H]1C[C@H](NS(=O)(=O)c2ccc(F)c(C(F)(F)F)c2)C1)S(=O)(=O)c1cccc(C(F)(F)F)c1 [Compound 667]	2.5 µM	2.7 µM	2.16 µM	1.3	10 µM	1.08 µM	9.3	7.76 µM	2.56 µM	3
CC(C)(C1CC(CNC(=O)c2cc(C(F)(F)F)n[nH]2)C1)S(=O)(=O)c1cccc(C(F)(F)F)c1 (stereo not shown) [Compound 682]	≥ 10 µM	2.31 µM	–	–	6.64 µM	0.53 µM	12.5	≥ 10 µM	2.16 µM	4.6
CC(C)([C@H]1C[C@@H](NS(=O)(=O)c2ccc(OC(F)(F)F)cc2)C1)S(=O)(=O)c1cc(F)cc(C(F)(F)F)c1 [Compound 603]	5.48 µM	≥ 10 µM	6.46 µM	1.5	4.17 µM	0.61 µM	6.8	6.92 µM	2.12 µM	3.3
